This is an account of results in paper PMC8226262, “Licarin-B Exhibits Activity Against the Toxoplasma gondii RH Strain by Damaging Mitochondria and Activating Autophagy” (Frontiers in Cell and Developmental Biology, 2021).

The test system of data set [1] is T. gondii tachyzoite intracellular proliferation in HFFs. The data set can be described thus: Anti-proliferation activity of licarin-B (qPCR). The data set is classed as cell-based, Toxoplasma gondii. As to conditions: 24 h. Here is the method:
DMEM without drugs was used as a parasite control. […] After 24 h, the cells were washed twice with PBS, and total genomic DNA from the cells was obtained as described in a previous study ([Zhang J.L. et al., 2019]). […] The results represent the means ± standard deviations (SD) from at least three independent experiments. The EC50 of licarin-B for tachyzoite growth inhibition was plotted as a function of the compound concentration via non-linear curve analysis using SPSS 19.0 software (SPSS Inc., Chicago, IL, United States). The results of the anti-invasion and anti-proliferation tests, the in vivo assays of the survival rate and parasite burden and data comparisons between the parasite control and treatment groups were statistically analyzed by one-way analysis of variance (ANOVA) using SPSS software.
For orientation: Quantitative PCR measures a nucleic acid by following its amplification.

Data set [2] deals with T. gondii tachyzoites in HFFs. Description: Transmission electron microscopy of tachyzoites. Format: cell-based, Toxoplasma gondii. As to conditions: 18 μg/mL. Here is the method: For transmission electron microscopy (TEM) analysis, HFFs were seeded to confluence in T25 flasks and infected with 1.5 × 10^6 T. gondii tachyzoites for 8 h. After the addition of 18 μg/mL licarin-B, the cells were cultured for 4, 8, or 16 h, digested with TrypLE Express for 2 min, washed twice with PBS, fixed with 2.5% glutaraldehyde at 4°C for 12 h, washed with PBS to remove glutaraldehyde and post-fixed with 1% osmium acid solution for 1.5 h in the dark. The samples were then washed with PBS, dehydrated in a graded alcohol series, dehydrated in acetone and embedded in Epon. Ultrathin sections were stained with uranyl acetate and lead citrate and observed under a transmission electron microscope (Tecnai Spirit Bio-TWIN, Thermo Fisher Scientific, FEI, United States).

In data set [3] the test system is extracellular T. gondii tachyzoites. Description: MitoTracker Red CMXRos staining (mitochondrial membrane potential). Format: cell-based, Toxoplasma gondii. Here is the method: Extracellular parasites (1 × 10^5 per group) were incubated in DMEM with licarin-B (18 μg/mL) for 4, 8, or 16 h at 37°C; with licarin-B (18, 27, or 36 μg/mL) for 8 h at 37°C; or without any drug (as a control). Then, all the samples were stained with the MitoTracker Red CMXRos probe (50 nM, Invitrogen, United States) for 20 min. ([Zhang J.L. et al., 2019]). The fluorescence intensity was observed by laser confocal microscopy (ZEISS LSM-800, Jena, Germany).

Data set [4] has the same test system. The data set can be described thus: Flow cytometry analysis of T. gondii survival (annexin V-PE / 7-AAD). The data set is classed as cell-based, Toxoplasma gondii. The following applies: 24 h. Here is the method:
Approximately 1 × 10^6 extracellular tachyzoites were incubated with licarin-B (18 or 36 μg/mL) in DMEM or with no drug as a control for 24 h, followed by centrifugation at 1,500 × g for 10 min. The samples were washed with PBS and suspended in 100 μL of binding buffer with 5 μL of annexin V-PE and 5 μL of 7-AAD dye in the dark for 20 min at 37°C. Double mixtures were acquired and analyzed by flow cytometry (BD FACSVerse, United States) ([Giovati et al., 2018]). The experiment was repeated three times.
In general terms: Flow cytometry measures light scatter and fluorescence of single cells or particles in a stream.

In data set [5] the test system is T. gondii tachyzoites (strain RH) in HFFs. The data set can be described thus: In vitro screening of anti-T. gondii activity (Giemsa staining, qPCR). The data set is classed as cell-based, Toxoplasma gondii. The following applies: 24 h. On the procedure: Human foreskin fibroblasts were seeded in 6-well plates and infected with 3 × 10^4 fresh T. gondii tachyzoites. After 8 h, the natural compounds in DMEM supplemented with 1% FBS were added. Sulfadiazine and pyrimethamine were included as positive drug controls. After incubation for 24 h, the cells were washed twice with PBS, stained with Giemsa, and observed by light microscopy. In addition, total DNA was isolated from the cells using DNAiso Reagent (Takara), and a 529-bp repeat element was amplified by quantitative polymerase chain reaction (qPCR) with the following primers: Tox-F (5′-AGGAGAGATATCAGGACTGTAG-3′), Tox-R (5′-GCGTCGTCTCGTCTAGATCG-3′), and the Taqman probe Tox-TP (6-Fam CCGGCTTGGCTGCTTTTCCT BHQ1), as described in a previous study ([Zhang J.L. et al., 2019]). The inhibition rates against T. gondii proliferation for the natural compounds at concentrations with no HFF toxicity were calculated, and the inhibition rate in each treatment group was presented as the % of the control group. The experiment was repeated three times.

The subject of data set [6] is T. gondii tachyzoites. Description: In vivo survival of acutely infected mice. The arrangement: species or system BALB/c mice. The following applies: 30-day test period. Here is the method: The therapeutic effect on acute infection was evaluated as described by Zhang; female BALB/c mice were divided into four groups consisting of 10 mice each, and each mouse was injected with 2 × 10^3 tachyzoites by intraperitoneal injection. Then, the mice were treated with licarin-B (25 or 50 mg/kg⋅bw), the positive drugs (100 mg/kg⋅bw sulfadiazine, 50 mg/kg⋅bw pyrimethamine, or 15 mg/kg⋅bw folinic acid) or PBS (as control) ([Si et al., 2018]). Positive drugs were administered by oral administration, and licarin-B was administered by intraperitoneal injection. […] The survival times of the infected mice and the number of deaths were monitored and recorded twice daily for 30 days.

In data set [7] the test system is extracellular T. gondii tachyzoites. The data set can be described thus: DAPI staining of the nucleus. Format: cell-based, Toxoplasma gondii. As to conditions: 18, 27, or 36 μg/mL for 16 h. On the procedure:
Extracellular parasites (1 × 10^5 per group) were incubated in DMEM with licarin-B (18, 27, or 36 μg/mL) or without any drug (as a control) for 16 h at 37°C. All the samples were stained with 4′,6-diamidino-2-phenylindole (DAPI) at 37°C for 10 min, and fluorescence intensity was observed by laser confocal microscopy.

For data set [8], the system named is T. gondii tachyzoites. Description: Monodansylcadaverine (MDC) staining of autophagosomes. The data set is classed as cell-based, Toxoplasma gondii. Here is the method: For each sample, approximately 1 × 10^5 tachyzoites were treated with licarin-B (18 μg/mL) in DMEM for 4, 8, or 16 h at 37°C; licarin-B (18, 27, or 36 μg/mL) in DMEM for 8 h at 37°C; or no drug (as a control) in DMEM. Then, the samples were washed with PBS (pH 7.4), suspended in monodansylcadaverine (MDC) working solution (100 μM) at 37°C for 1 h after centrifugation, and washed twice with PBS. The tachyzoites were resuspended in 500 μL of PBS, and the fluorescence in each group was visualized by laser scanning confocal microscopy.

A short description of data set [9]: Dose safety assessment in vivo. As to conditions: mice treated with the tested doses (25 or 50 mg/kg⋅bw) for 30 days. On the procedure:
Dose safety assessment in vivo was performed to determine safe doses of licarin-B, as previously described.

Data set [10] deals with T. gondii invasion of HFFs. The data set can be described thus: Anti-invasion assessment in vitro (qPCR). Format: cell-based, Toxoplasma gondii. As to conditions: 4.5–22.5 μg/mL, 2 h of infection. On the procedure: Human foreskin fibroblasts were seeded in 6-well plates and incubated with different concentrations of licarin-B (4.5, 9, 13.5, 18, or 22.5 μg/mL), sulfadiazine (0.4 μg/mL, as a positive control) or without drugs in DMEM supplemented with 1% FBS and then infected with 3 × 10^6 fresh parasites per well. The anti-invasion capability of licarin-B was determined by qPCR after 2 h of infection, as described in a previous study ([Zhang J.L. et al., 2019]). Triplicate independent experiments were performed.

The test system of data set [11] is T. gondii tachyzoites. The data set can be described thus: In vivo parasite burden in tissues and blood (qPCR). The arrangement: species or system BALB/c mice. As to conditions: 50 mg/kg⋅bw, acutely infected mice. Here is the method: To evaluate the therapeutic effect of licarin-B on acute infection, mice were infected intraperitoneally with 1 × 10^4 tachyzoites and then divided into three groups (six mice/group) for treatment with PBS (as a parasite control), licarin-B (50 mg/kg⋅bw), or a positive control drug, as described above ([Zhang J.L. et al., 2019]). The treatments were administered for 4 consecutive days, and then, the number of parasites in the tissue and blood samples were deduced from standard curves constructed using known numbers of tachyzoites, as previously described.

Data set [12] has as its system T. gondii. As to conditions: ref Zhang J. et al., 2019; cited from earlier work.
The test system of data set [13] is T. gondii. The arrangement: method as in Zhang J. et al., 2019. The following applies: 50 mg/kg.bw; ref Zhang J. et al., 2019; cited from earlier work.

In brackets after ≈: the same amount, converted by molar mass.

Consider `C/C=C/c1cc(OC)c2c(c1)C(C)[C@@H](c1ccc3c(c1)OCO3)O2` (stereo partly drawn) [Licarin-B, 5-[(2S)-2,3-D\dihydro-7-methoxy-3β-methyl-5-[(E)-1-propenyl]benzofuran-2-yl]-1,3-benzodioxole], for which, in [1] (4.5–45 μg/mL), the “Inhibition of T. gondii tachyzoite intracellular proliferation vs control” value is “significantly (p < 0.01) inhibited T. gondii tachyzoite intracellular proliferation in a concentration-dependent manner”. The “EC50 for T. gondii tachyzoite growth inhibition” value in data set [1] (intracellular proliferation in HFFs) amounted to 14.05 ± 3.96 µg/mL. Also, the “Ultrastructural changes in tachyzoites (TEM)” value in data set [2] (4 h) is “slight mitochondrial swelling and a double membrane structure”; in [2] (8 h), “mitochondrial swelling, cristae disruption, vacuole formation, and an autophagy-like double membrane structure in the cytoplasm”; in data set [2] (16 h), “extensive clefts around the nucleus, nuclear membrane disappearance, and progressive degeneration of the parasites”. The “Mitochondrial membrane potential (ΔΨm)” value in [3] (18 μg/mL for 4, 8, or 16 h) is recorded as “decreased the ΔΨm in T. gondii in a time-dependent manner”; in data set [3] (18, 27, or 36 μg/mL for 8 h), “the ΔΨm was reduced in a dose-dependent manner”. Besides, the “T. gondii survival rate” value in [4] (18 μg/mL) is reported as “approximately 45%”; in [4] (36 μg/mL) it was around 26%. For the same compound, the “Mean inhibition rate (% of control)” value in data set [5] (200 μg/mL, T. gondii proliferation in HFFs) was 99.76 ± 5.81%. The “Parasitophorous vacuoles (PVs) in host cells” value in data set [5] (Giemsa staining, maximum concentration safe for HFFs (licarin-B 200 μg/mL)) is given as “no parasitophorous vacuoles (PVs) in host cells”. Further, the “Survival rate of infected mice” value worked out at 60% in the data set with T. gondii tachyzoites [6] (25 mg/kg⋅bw intraperitoneal once daily for 15 days) and 90% in the data set on T. gondii tachyzoites [6] (50 mg/kg⋅bw intraperitoneal once daily for 15 days). The “DAPI staining of parasite nuclei” value in data set [7] is “diffuse fluorescent signal in the parasite nuclei”. The “MDC labelling of autophagosomes” value in the data set with T. gondii tachyzoites [8] (18 μg/mL for 4, 8, or 16 h) is “some parasites were positive for MDC”; in the data set with T. gondii tachyzoites [8] (18, 27, and 36 μg/mL for 8 h), “autophagy was induced in T. gondii in a concentration-dependent manner”. In data set [9], the Clinical toxicity entry is “no discernible clinical toxicity was observed”. Besides, the “Inhibition of T. gondii invasion vs control” value in [10] is reported as “significantly (p < 0.01) inhibited T. gondii invasion”. In addition, the “Parasite loads in the blood and brain, liver, and spleen tissues vs parasite control” value in the data set with T. gondii tachyzoites [11] was “significantly (p < 0.01) reduced the parasite loads”.
With `C=CCc1cc(OC)c(O[C@@H](C)[C@H](O)c2ccc(O)c(OC)c2)c(OC)c1` [myrislignan], the “EC50, anti-T. gondii activity” value with T. gondii [12] is 32.41 µg/mL (≈ 86.6 µM). The “Survival rate in mice upon acute infection” value in the data set with T. gondii [13] is 50%.
